Experimental data reported in ChEMBL document CHEMBL1127285, “N-alkyl quinuclidinium substance P antagonists” (Bioorg Med Chem Lett, 1994).

What follows are compounds tested against Substance-P receptor (Homo sapiens, UniProt P25103) (assay: Compound was tested in vitro for its Tachykinin receptor 1 affinity by the displacement of [125I]Bolton-Hunter substance p from human IM-9 cells).
Sequence of Substance-P receptor (P25103 whole entry): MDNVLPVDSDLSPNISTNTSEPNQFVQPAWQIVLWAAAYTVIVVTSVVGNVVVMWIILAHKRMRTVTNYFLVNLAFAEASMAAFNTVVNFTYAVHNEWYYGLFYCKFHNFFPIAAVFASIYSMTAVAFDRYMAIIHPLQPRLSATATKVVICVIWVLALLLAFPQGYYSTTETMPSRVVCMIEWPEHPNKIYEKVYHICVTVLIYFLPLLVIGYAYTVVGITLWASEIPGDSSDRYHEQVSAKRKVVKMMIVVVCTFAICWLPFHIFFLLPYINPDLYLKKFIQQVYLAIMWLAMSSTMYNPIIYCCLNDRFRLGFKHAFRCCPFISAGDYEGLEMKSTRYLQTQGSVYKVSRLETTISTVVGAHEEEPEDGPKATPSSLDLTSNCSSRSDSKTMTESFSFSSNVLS
Format: cell-based
In the case of `COc1ccccc1CN[C@H]1C2CC[N+](Cc3ccccc3)(CC2)[C@H]1C(c1ccccc1)c1ccccc1`, the IC50 is reported as 0.332 µM. `COc1ccccc1CN[C@H]1C2CC[N+](C)(CC2)[C@H]1C(c1ccccc1)c1ccccc1` was tested, and the IC50 was 0.0122 µM. `CCOC(=O)C[N+]12CCC(CC1)[C@H](NCc1ccccc1OC)[C@@H]2C(c1ccccc1)c1ccccc1` gave an IC50 of 0.0327 µM. In the case of `C=CC[N+]12CCC(CC1)[C@H](NCc1ccccc1OC)[C@@H]2C(c1ccccc1)c1ccccc1`, the IC50 is reported as 0.0223 µM. For `COc1ccccc1CN[C@H]1C2CC[N+](CC(N)=O)(CC2)[C@H]1C(c1ccccc1)c1ccccc1`, the IC50 was 0.0013 µM.
